Results taken from patent publication US7968096B2, “Methods and compositions for treating toxoplasma” (priority 2005, dated 2011).

Columns and labels:
Assay type in all cases: cell-based, Toxoplasma gondii
T. gondii [1] = assay: Parasite replication rate under bradyzoite differentiation conditions (parasites per PV-cyst, IFA); conditions: 4 days, 100 nM GA
Protocol: FIG. 5 is a graph showing that geldanamycin A (GA) affects bradyzoite replication rate. PK strain (an avirulent derivative of the Me49 strain) and ΔUPRT strain (a strain with a stage-specific selectable marker) parasites were grown under bradyzoite differentiation conditions for 4 days in the presence of 100 nM of GA or DMSO. IFAs were carried out with rabbit anti-T. gondii Hsp90 serum. Fluorescent parasites were counted and the number of parasites per parasitophorous vacuole (PV)-cysts was graphed. One hundred PV-cysts were counted. Student t test was performed by Prism3™ program (Graphpad). *p 0.05, **p 0.01. The y-axis represents the number of parasites/PV-cysts.
(§1) RH UPRT knock-out parasites can be induced to differentiate into bradyzoites in low CO2, resulting in pyrimidine starvation. […] Bradyzoite induction under this method was assessed and followed by cyst wall detection using the Dolichos biflorus lectin (Boothroyd et al., (1997) Philos Trans R Soc Lond B Biol Sci 352, 1347-1354). […]
GA (InvivoGen, San Diego, Calif.) was dissolved in dimethyl sulfoxide (DMSO) at […]. […] For replication rate studies, the number of parasites per parasitophorous vacuole or cysts (PV-Cyst) was determined for at least 100 PV-Cyst per treatment (GA or DMSO) in replicate experiments. […] Analysis of intracellular localization of Hsp90 was assessed in the same way but using rabbit anti-TgHsp90 serum. […]

T. gondii [2] = assay: Tachyzoite to bradyzoite conversion (P34 marker and Hsp90 subcellular localization by IFA); conditions: RH ΔUPRT strain, bradyzoite conditions 4 days, 100 nM GA
Protocol: FIG. 6 is two graphs showing that GA blocks tachyzoite to bradyzoite conversion. Parasites were grown under bradyzoite differentiation conditions for 4 days in the presence of 100 nM of GA or DMSO. FIG. 6A is RH UPRT knock-out parasites, and FIG. 6B is PK parasites. The y-axes depict the number of parasites/PV cysts. Cytoplasmic (c) and nuclear (n) Hsp90 localization was determined by IFA with rabbit anti-T. gondii Hsp90 serum. Parasites were also stained with the bradyzoite-specific marker p34 and scored as P34 positive (p34+) or negative (p34−). The number of P34−/Hsp90c; P34−/Hsp90c,n; P34+/Hsp90c; and P34+/Hsp90c,n per 100 PV-Cysts was counted at random, in three independent experiments.
as §1, with “starvation. (Bohne et al., (eds) (1997) Stage-specific expression of a selectable marker in T. gondii permits selective inhibition of either tachyzoites or bradyzoites Vol. 88. Mol Biochem Parasitol; Bohne et al., (1997) Mol Biochem Parasitol 88, 115-126).” for “starvation.”

T. gondii bradyzoites = assay: In vitro transformation of encysted bradyzoites into tachyzoites (P21/SAG1 markers and Hsp90 localization by IFA)
Protocol: Released PK bradyzoites from brain cysts of infected mice were incubated with 100 nM GA or DMSO for 2 hours, washed, inoculated onto a confluent HFF monolayers, and grown under tachyzoite conditions. IFAs were performed at 4 and 24 hours post-inoculation. To identify mature bradyzoites, parasites were stained using a monoclonal anti-p21 antibody, and tachyzoites were stained using rabbit anti-SAG1. […] The y-axis depicts the number of parasites per/PV-cysts, and the x-axis depicts time in hours. […] The y-axis depicts the number of parasites per/PV-cysts, and the x-axis depicts time in hours. Parasites with cytoplasmic Hsp90 were treated with GA (Hsp90c-GA) or DMSO (Hsp90c-DMSO); parasites with cytoplasmic and nuclear Hsp90 were treated with GA (Hsp90c,n-GA) or DMSO (Hsp90n,c-DMSO). 100 PV-Cysts were counted at random in three independent experiments.
Cysts were isolated from brains of mice infected intraperitoneally 4 weeks before with PK or Me49 strain tachyzoites. Cysts were purified by isopycnic centrifugation on a percoll gradient and encysted bradyzoites were freed by trypsin digestion. In the case of GA experiments, free bradyzoites were incubated in culture media with GA […] or DMSO for 2 h, then parasites were pelleted and washed. One hundred thousand bradyzoites were inoculated onto 12 mm coverslips covered with a confluent monolayer of HFFs. Intracellular localization of Hsp90 was followed by IFA after 4 and 24 hours of infection using anti-Hsp90 serum (1:100). Monoclonal antibodies, specific to the tachyzoite surface protein SAG1 or to the bradyzoite specific protein P21 (mAb T84G10), were used to monitor stage conversion.
GA (InvivoGen, San Diego, Calif.) was dissolved in dimethyl sulfoxide (DMSO) at […]. The drug was diluted in normal culture media to the required concentrations prior to use. A range of concentrations from 1 nM to 5 μM were initially assayed to determine an effective concentration for subsequent experiments. DMSO was added in similar concentrations to control slides. For replication rate studies, the number of parasites per parasitophorous vacuole or cysts (PV-Cyst) was determined for at least 100 PV-Cyst per treatment (GA or DMSO) in replicate experiments. To measure the effect of GA on stage conversion, GA was added in bradyzoite induction experiments (as described above), slides were analyzed by IFA, and the number of P34 positive vacuoles was determined in both GA and DMSO treated cultures. Analysis of intracellular localization of Hsp90 was assessed in the same way but using rabbit anti-TgHsp90 serum. In the in vitro transformation of encysted bradyzoites into tachyzoites experiments, parasites were treated with GA (as described above) and then analyzed by IFA counting P21 and […] positive PV-Cysts in treated and control groups. For replication rate studies, the number of parasites per PV/cysts was determined for at least 100 PV-Cyst per treatment in replicate experiments.

[3] = 24 hours, Me49 bradyzoites incubated 2 hours with GA, washed, tachyzoite conditions
[4] = GA treated bradyzoites, time point not stated

COC1=C2C[C@@H](C)C[C@H](OC)[C@H](O)[C@@H](C)/C=C(\C)[C@H](OC(N)=O)[C@@H](OC)/C=C\C=C(/C)C(=O)NC(=CC1=O)C2=O [GA, geldanamycin A]
reduction of parasite growth compared to DMSO controls (T. gondii [1]; PK strain): ~3 fold | reduction of parasite growth compared to DMSO controls (T. gondii [1]; RH strain): ~2 fold | parasite vacuoles showing P34- and Hsp90c (tachyzoite phenotype) (T. gondii [2]): about 75% | P21 positive and SAG1 negative parasites (T. gondii bradyzoites; 4 hours post-infection, all parasites (GA and DMSO), Me49 bradyzoites incubated 2 hours): more than 90% | parasites exhibiting Hsp90c (T. gondii bradyzoites; 24 hours post-infection): 100% | SAG1 positive parasites (T. gondii bradyzoites; [3]): less than 5% | parasites remaining P21 positive (T. gondii bradyzoites; [3]): more than 90% | bradyzoites showing Hsp90c staining (T. gondii bradyzoites; [4]): 80% | bradyzoites showing Hsp90n,c staining pattern (T. gondii bradyzoites; [4]): 20% | reduction of level of invasion compared with DMSO treated parasites (T. gondii bradyzoites; bradyzoites treated with GA): 40-66%
